Tested on: Phytophthora infestans
Test: microbe, parasite or virus in culture
Format: cell-based
Details: in Secale cereale, 168 h, read-out: control compared to the untreated check

Compound | inhibition of growth at 30 ppm
CS(=O)(=O)Oc1cccc(Cl)c1C1CC(c2csc(C3CCN(C(=O)COc4cncc(C(F)(F)F)n4)CC3)n2)=NO1 (centres unmarked) [Compound 57, 3-chloro-2-(3-(2-(1-(2-((6-(trifluoromethyl)pyrazin-2-yl)oxy)acetyl)piperidin-4-yl)thiazol-4-yl)-4,5-dihydroisoxazol-5-yl)phenyl methanesulfonate] | ≥ 70%
O=C(COc1cncc(C(F)(F)F)n1)N1CCC(c2nc(C3=NOC(c4c(F)cccc4F)C3)cs2)CC1 (centres unmarked) [Compound 58, 1-(4-(4-(5-(2,6-difluorophenyl)-4,5-dihydroisoxazol-3-yl)thiazol-2-yl)piperidin-1-yl)-2-((6-(trifluoromethyl)pyrazin-2-yl)oxy)ethan-1-one] | ≥ 70%
O=C(COc1cncc(C(F)(F)F)n1)N1CCC(c2nc(C3=NOC(c4c(F)cccc4Br)C3)cs2)CC1 (centres unmarked) [Compound 59, 1-(4-(4-(5-(2-bromo-6-fluorophenyl)-4,5-dihydroisoxazol-3-yl)thiazol-2-yl)piperidin-1-yl)-2-((6-(trifluoromethyl)pyrazin-2-yl)oxy)ethan-1-one] | ≥ 70%
O=C(COc1cncc(C(F)(F)F)n1)N1CCC(c2nc(C3=NOC(c4c(Cl)ccc(F)c4F)C3)cs2)CC1 (centres unmarked) [Compound 61, 1-(4-(4-(5-(6-chloro-2,3-difluorophenyl)-4,5-dihydroisoxazol-3-yl)thiazol-2-yl)piperidin-1-yl)-2-((6-(trifluoromethyl)pyrazin-2-yl)oxy)ethan-1-one] | ≥ 70%
COc1ccnc(OCC(=O)N2CCC(c3nc(C4=NOC(c5c(Cl)ccc(F)c5F)C4)cs3)CC2)n1 (centres unmarked) [Compound 63, 1-(4-(4-(5-(6-chloro-2,3-difluorophenyl)-4,5-dihydroisoxazol-3-yl)thiazol-2-yl)piperidin-1-yl)-2-((4-methoxypyrimidin-2-yl)oxy)ethan-1-one] | ≥ 70%
COc1nccnc1OCC(=O)N1CCC(c2nc(C3=NOC(c4c(Cl)cccc4C(F)(F)F)C3)cs2)CC1 (centres unmarked) [Compound 65, 1-(4-(4-(5-(2-chloro-6-(trifluoromethyl)phenyl)-4,5-dihydroisoxazol-3-yl)thiazol-2-yl)piperidin-1-yl)-2-((3-methoxypyrazin-2-yl)oxy)ethan-1-one] | ≥ 70%
O=C(COc1ccc(C(F)(F)F)nn1)N1CCC(c2nc(C3=NOC(c4c(Cl)cccc4C(F)(F)F)C3)cs2)CC1 (centres unmarked) [Compound 66, 1-(4-(4-(5-(2-chloro-6-(trifluoromethyl)phenyl)-4,5-dihydroisoxazol-3-yl)thiazol-2-yl)piperidin-1-yl)-2-((6-(trifluoromethyl)pyridazin-3-yl)oxy)ethan-1-one] | ≥ 70%
O=C(COc1cncc(C(F)(F)F)n1)N1CCC(c2nc(C3=NOC(c4c(Cl)cccc4C(F)(F)F)C3)cs2)CC1 (centres unmarked) [Compound 68, 1-(4-(4-(5-(2-chloro-6-(trifluoromethyl)phenyl)-4,5-dihydroisoxazol-3-yl)thiazol-2-yl)piperidin-1-yl)-2-((6-(trifluoromethyl)pyrazin-2-yl)oxy)ethan-1-one] | ≥ 70%
O=C(COc1cnc(C(F)(F)F)cn1)N1CCC(c2nc(C3=NOC(c4c(Cl)cccc4C(F)(F)F)C3)cs2)CC1 (centres unmarked) [Compound 69, 1-(4-(4-(5-(2-chloro-6-(trifluoromethyl)phenyl)-4,5-dihydroisoxazol-3-yl)thiazol-2-yl)piperidin-1-yl)-2-((5-(trifluoromethyl)pyrazin-2-yl)oxy)ethan-1-one] | ≥ 70%
O=C(COc1nccc(C(F)(F)F)n1)N1CCC(c2nc(C3=NOC(c4c(Cl)ccc(F)c4F)C3)cs2)CC1 (centres unmarked) [Compound 70, 1-(4-(4-(5-(6-chloro-2,3-difluorophenyl)-4,5-dihydroisoxazol-3-yl)thiazol-2-yl)piperidin-1-yl)-2-((4-(trifluoromethyl)pyrimidin-2-yl)oxy)ethan-1-one] | ≥ 70%
COc1cncnc1OCC(=O)N1CCC(c2nc(C3=NOC(c4c(Cl)cccc4C#N)C3)cs2)CC1 (centres unmarked) [Compound 71, 3-chloro-2-(3-(2-(1-(2-((5-methoxypyrimidin-4-yl)oxy)acetyl)piperidin-4-yl)thiazol-4-yl)-4,5-dihydroisoxazol-5-yl)benzonitrile] | ≥ 70%
COc1cncnc1OCC(=O)N1CCC(c2nc(C3=NOC(c4c(Cl)cccc4OS(C)(=O)=O)C3)cs2)CC1 (centres unmarked) [Compound 72, 3-chloro-2-(3-(2-(1-(2-((5-methoxypyrimidin-4-yl)oxy)acetyl)piperidin-4-yl)thiazol-4-yl)-4,5-dihydroisoxazol-5-yl)phenyl methanesulfonate] | ≥ 70%
COc1cncnc1OCC(=O)N1CCC(c2nc(C3=NOC(c4c(Cl)cccc4Cl)C3)cs2)CC1 (centres unmarked) [Compound 73, 1-(4-(4-(5-(2,6-dichlorophenyl)-4,5-dihydroisoxazol-3-yl)thiazol-2-yl)piperidin-1-yl)-2-((5-methoxypyrimidin-4-yl)oxy)ethan-1-one] | ≥ 70%
COc1cncnc1OCC(=O)N1CCC(c2nc(C3=NOC(c4c(F)cccc4Cl)C3)cs2)CC1 (centres unmarked) [Compound 74, 1-(4-(4-(5-(2-chloro-6-fluorophenyl)-4,5-dihydroisoxazol-3-yl)thiazol-2-yl)piperidin-1-yl)-2-((5-methoxypyrimidin-4-yl)oxy)ethan-1-one] | ≥ 70%
COc1cncnc1OCC(=O)N1CCC(c2nc(C3=NOC(c4c(Cl)cc(Cl)cc4Cl)C3)cs2)CC1 (centres unmarked) [Compound 75, 2-((5-methoxypyrimidin-4-yl)oxy)-1-(4-(4-(5-(2,4,6-trichlorophenyl)-4,5-dihydroisoxazol-3-yl)thiazol-2-yl)piperidin-1-yl)ethan-1-one] | ≥ 70%
COc1cncnc1OCC(=O)N1CCC(c2nc(C3=NOC(c4c(F)cccc4F)C3)cs2)CC1 (centres unmarked) [Compound 76, 1-(4-(4-(5-(2,6-difluorophenyl)-4,5-dihydroisoxazol-3-yl)thiazol-2-yl)piperidin-1-yl)-2-((5-methoxypyrimidin-4-yl)oxy)ethan-1-one] | ≥ 70%
COc1cncnc1OCC(=O)N1CCC(c2nc(C3=NOC(c4cc(Cl)ccc4Cl)C3)cs2)CC1 (centres unmarked) [Compound 77, 1-(4-(4-(5-(2,5-dichlorophenyl)-4,5-dihydroisoxazol-3-yl)thiazol-2-yl)piperidin-1-yl)-2-((5-methoxypyrimidin-4-yl)oxy)ethan-1-one] | ≥ 70%
COc1cncnc1OCC(=O)N1CCC(c2nc(C3=NOC(c4c(F)cccc4Br)C3)cs2)CC1 (centres unmarked) [Compound 78, 1-(4-(4-(5-(2-bromo-6-fluorophenyl)-4,5-dihydroisoxazol-3-yl)thiazol-2-yl)piperidin-1-yl)-2-((5-methoxypyrimidin-4-yl)oxy)ethan-1-one] | ≥ 70%
COc1cncnc1OCC(=O)N1CCC(c2nc(C3=NOC(c4c(O)cccc4Cl)C3)cs2)CC1 (centres unmarked) [Compound 79, 1-(4-(4-(5-(2-chloro-6-hydroxyphenyl)-4,5-dihydroisoxazol-3-yl)thiazol-2-yl)piperidin-1-yl)-2-((5-methoxypyrimidin-4-yl)oxy)ethan-1-one] | ≥ 70%
COc1cncnc1OCC(=O)N1CCC(c2nc(C3=NOC(c4c(Cl)cccc4C(F)(F)F)C3)cs2)CC1 (centres unmarked) [Compound 80, 1-(4-(4-(5-(2-chloro-6-(trifluoromethyl)phenyl)-4,5-dihydroisoxazol-3-yl)thiazol-2-yl)piperidin-1-yl)-2-((5-methoxypyrimidin-4-yl)oxy)ethan-1-one] | ≥ 70%
